# From patent US7091202B2, “4-arylspirocycloalkyl-2-aminopyrimidine carboxamide KCNQ potassium channel modulators” (Bristol-Myers Squibb Company, priority 2004, dated 2006)
# Biological target: T1, hQ23 (HEK-293 cell line stably transfected with one of the members of the KCNQ family) (Homo sapiens, UniProt O43525+O43526)
# T1 construct: expressed in transfected cells; host or cells: HEK-293, stably transfected
# Assay: Thallium flux assay for KCNQ channel blockers (FLIPR, BTC dye)
# Assay type: cell-based
# Settings: Table 2; thallium flux, HEK-293
# Outline: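 HEK-293 cells stably expressing a KCNQ member, loaded with BTC-AM (2 μM) in chloride-free buffer, pH 7.3; compounds added at 1% DMSO, then Tl2SO4 stimulus on FLIPR (488/540 nm, 60 s). Minimal active concentration set at ≥4 SD above negative control; IC50 from 10-point 1:3 series, single-site logistic fit versus the positive-control blocker.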
# T1 sequence (O43526 whole entry): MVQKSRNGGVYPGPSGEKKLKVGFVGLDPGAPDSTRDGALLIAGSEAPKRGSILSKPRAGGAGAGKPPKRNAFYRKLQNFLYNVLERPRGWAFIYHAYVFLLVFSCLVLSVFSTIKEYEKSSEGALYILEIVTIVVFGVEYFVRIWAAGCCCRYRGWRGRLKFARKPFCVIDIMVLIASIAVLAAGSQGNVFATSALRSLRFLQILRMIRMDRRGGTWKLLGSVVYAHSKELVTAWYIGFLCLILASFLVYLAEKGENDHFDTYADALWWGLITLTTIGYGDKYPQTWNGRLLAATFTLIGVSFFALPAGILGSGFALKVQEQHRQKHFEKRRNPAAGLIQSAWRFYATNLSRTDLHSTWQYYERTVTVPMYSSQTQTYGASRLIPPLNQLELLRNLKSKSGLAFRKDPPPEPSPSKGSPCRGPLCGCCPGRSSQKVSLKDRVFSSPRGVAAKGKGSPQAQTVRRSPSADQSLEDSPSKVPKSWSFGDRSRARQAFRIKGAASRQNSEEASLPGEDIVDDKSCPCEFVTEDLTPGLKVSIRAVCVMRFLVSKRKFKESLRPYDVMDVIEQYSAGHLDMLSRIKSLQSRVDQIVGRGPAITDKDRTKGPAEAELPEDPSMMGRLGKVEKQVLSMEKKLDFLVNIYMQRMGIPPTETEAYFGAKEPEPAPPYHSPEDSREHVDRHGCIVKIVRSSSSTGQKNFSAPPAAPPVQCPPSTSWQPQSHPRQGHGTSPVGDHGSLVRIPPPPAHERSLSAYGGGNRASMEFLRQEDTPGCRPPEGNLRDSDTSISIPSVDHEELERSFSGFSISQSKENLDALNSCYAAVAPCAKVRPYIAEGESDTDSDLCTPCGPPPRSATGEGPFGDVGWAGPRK
# T1 sequence (O43525 whole entry): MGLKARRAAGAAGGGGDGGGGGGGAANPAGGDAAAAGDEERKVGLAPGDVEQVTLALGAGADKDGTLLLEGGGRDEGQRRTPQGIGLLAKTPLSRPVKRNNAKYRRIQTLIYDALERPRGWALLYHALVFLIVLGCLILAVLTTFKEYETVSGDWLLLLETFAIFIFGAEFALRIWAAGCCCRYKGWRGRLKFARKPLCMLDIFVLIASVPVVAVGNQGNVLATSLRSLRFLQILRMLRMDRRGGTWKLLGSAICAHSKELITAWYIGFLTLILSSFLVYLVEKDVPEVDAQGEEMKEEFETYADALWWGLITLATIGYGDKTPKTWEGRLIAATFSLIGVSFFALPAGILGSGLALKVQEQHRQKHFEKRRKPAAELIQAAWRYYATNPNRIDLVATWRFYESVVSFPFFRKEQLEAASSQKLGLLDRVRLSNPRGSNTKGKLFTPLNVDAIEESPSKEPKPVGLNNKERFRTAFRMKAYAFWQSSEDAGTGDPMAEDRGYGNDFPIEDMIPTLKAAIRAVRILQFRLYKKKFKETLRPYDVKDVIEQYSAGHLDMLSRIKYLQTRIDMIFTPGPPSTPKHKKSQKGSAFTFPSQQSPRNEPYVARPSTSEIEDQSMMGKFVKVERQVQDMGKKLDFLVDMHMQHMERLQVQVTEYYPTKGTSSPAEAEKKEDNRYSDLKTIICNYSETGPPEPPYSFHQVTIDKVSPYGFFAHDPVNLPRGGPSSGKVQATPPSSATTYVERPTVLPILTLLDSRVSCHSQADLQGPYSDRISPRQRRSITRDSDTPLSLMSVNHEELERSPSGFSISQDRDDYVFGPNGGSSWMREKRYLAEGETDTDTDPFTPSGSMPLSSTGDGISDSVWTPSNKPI
row,Structure (SMILES),EC50 [nM]
1,"CN1CCN(c2ncc(C(=O)NCc3cc(F)cc(C(F)(F)F)c3)c(C3(c4ccccc4)CC3)n2)CC1 [Example 46, 5-pyrimidinecarboxamide, N-[[3-fluoro-5-(trifluoromethyl)phenyl]methyl]-2-(4-methyl-1-piperazinyl)-4-(1-phenylcyclopropyl)-]",384

# Same assay, conditions: hQ23 cells, thallium flux
row,EC50 [nM],Structure (SMILES)
1,57,"CC1CCCN(c2ncc(C(=O)NCc3ccc4c(c3)OCO4)c(C3(c4ccccc4)CCCC3)n2)C1 (stereo not shown) [Example 92, 5-pyrimidinecarboxamide, N-(1,3-benzodioxol-5-ylmethyl)-2-(3-methyl-1-piperidinyl)-4-(1-phenylcyclopentyl)-]"
2,605,"CCN(C)C(=O)c1cnc(N2CCCC(C)C2)nc1C1(c2ccccc2)CCCC1 (stereo not shown) [Example 83, 5-pyrimidinecarboxamide, N-ethyl-N-methyl-2-(3-methyl-1-piperidinyl)-4-(1-phenylcyclopentyl)-]"
3,148,"CC(NC(=O)c1cnc(N2CCCC2)nc1C1(c2ccccc2)CCCC1)c1cccc2ccccc12 (stereo not shown) [Example 96, 5-pyrimidinecarboxamide, N-[1-(1-naphthalenyl)ethyl]-4-(1-phenylcyclopentyl)-2-(1-pyrrolidinyl)-]"

# The remaining lines, values behind:
row,Structure (SMILES),EC50 [nM]
1,"CC1CCC(Nc2ncc(C(=O)NCc3ccc(C(F)(F)F)cc3)c(C3(c4ccccc4)CCCC3)n2)CC1 (stereo not shown) [Example 137, 5-pyrimidinecarboxamide, 2-[(4-methylcyclohexyl)amino]-4-(1-phenylcyclopentyl)-N-[[4-(trifluoromethyl)phenyl]methyl]-]",964
2,"CN(C)CCNc1ncc(C(=O)NCc2cc(F)cc(C(F)(F)F)c2)c(C2(c3ccc(Cl)cc3)CCCC2)n1 [Example 195, 5-pyrimidinecarboxamide, 4-[1-(4-chlorophenyl)cyclopentyl]-2-[[2-(dimethylamino)ethyl]amino]-N-[[3-fluoro-5-(trifluoromethyl)phenyl]methyl]-]",634
3,"CC1CCN(c2ncc(C(=O)N3CCCC(C)C3)c(C3(c4ccccc4)CCCC3)n2)CC1 (stereo not shown) [Example 78, piperidine, 3-methyl-1-[[2-(4-methyl-1-piperidinyl)-4-(1-phenylcyclopentyl)-5-pyrimidinyl]carbonyl]-]",775
4,"CC1CCC(Nc2ncc(C(=O)N3CCc4ccccc4C3)c(C3(c4ccc(F)cc4)CCCC3)n2)CC1 (stereo not shown) [Example 210, isoquinoline, 2-[[4-[1-(4-fluorophenyl)cyclopentyl]-2-[(4-methylcyclohexyl)amino]-5-pyrimidinyl]carbonyl]-1,2,3,4-tetrahydro-]",375
5,"CC1CCN(c2ncc(C(=O)N3CCCCC3)c(C3(c4ccccc4)CCCC3)n2)CC1 [Example 77, piperidine, 1-[[2-(4-methyl-1-piperidinyl)-4-(1-phenylcyclopentyl)-5-pyrimidinyl]carbonyl]-]",164

# Same assay, conditions: hQ23 cells, thallium flux assay
row,Structure (SMILES),EC50 [nM]
1,"CC(NC(=O)c1cnc(N2CCCC2)nc1C1(c2ccc(F)cc2)CCCC1)c1cccc2ccccc12 (stereo not shown) [Example 242, 5-pyrimidinecarboxamide, 4-[1-(4-fluorophenyl)cyclopentyl]-N-[1-(1-naphthalenyl)ethyl]-2-(1-pyrrolidinyl)-]",34
2,"O=C(NCc1ccc2c(c1)OCO2)c1cnc(N2CCCC2)nc1C1(c2ccc(F)cc2)CCCC1 [Example 235, 5-pyrimidinecarboxamide, N-(1,3-benzodioxol-5-ylmethyl)-4-[1-(4-fluorophenyl)cyclopentyl]-2-(1-pyrrolidinyl)-]",214
3,"CC1CCC(Nc2ncc(C(=O)NCc3ccc(F)cc3F)c(C3(c4ccc(F)cc4)CCCC3)n2)CC1 (stereo not shown) [Example 267, 5-pyrimidinecarboxamide, N-[(2,4-difluorophenyl)methyl]-4-[1-(4-fluorophenyl)cyclopentyl]-2-[(4-methylcyclohexyl)amino]-]",48
4,"CC1CCCN(c2ncc(C(=O)NC(C)c3ccc(F)cc3)c(C3(c4ccc(F)cc4)CCCC3)n2)C1 (stereo not shown) [Example 284, 5-pyrimidinecarboxamide, 4-[1-(4-fluorophenyl)cyclopentyl]-N-[1-(4-fluorophenyl)ethyl]-2-(3-methyl-1-piperidinyl)-]",78
